Reference: patent publication US9624247B2, “Pyrazolo-pyrrolidin-4-one derivatives as bet inhibitors and their use in the treatment of disease” (NOVARTIS AG, priority 2013, dated 2017)

What was measured:
BRD2 (His-Brd2(60-472)) = BRD2 (His-Brd2(60-472)) (Homo sapiens (Human), UniProt P25440); experiment: TR-FRET in-vitro binding assay for BRD2; settings: acetyl-histone H4 peptide
MV-4-11 cells = experiment: Cell growth inhibition assay (CellTiter-Glo), MV-4-11; type: cell-based, human; settings: MV-4-11, 4 days; for GI50: Homo sapiens, MV4-11, 96 h, half-maximal growth inhibition; for MV-4-11 TGI: total growth inhibition
Method in brief: (§1)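 Leukemia cells were exposed for 4 days at 37 °C to 3-fold dilution series from 10 μM (0.1% DMSO), then viable cells were quantified by CellTiter-Glo ATP luminescence. Signal was corrected for background and a day-0 plate, with vehicle set at 100% and medium-only at −100%. IC50 and TGI were obtained by four-parameter fit.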

K-562 cells = experiment: Cell growth inhibition assay (CellTiter-Glo), K-562; type: cell-based, human; settings: K-562, 4 days; for GI50: Homo sapiens, K562, 96 h, half-maximal growth inhibition; for K-562 TGI: total growth inhibition
Method in brief: as §1

THP-1 cells = experiment: Cell growth inhibition assay (CellTiter-Glo), THP-1; type: cell-based, human; settings: THP-1, 4 days; for GI50: Homo sapiens, 96 h, half-maximal growth inhibition; for THP-1 TGI: total growth inhibition
Method in brief: as §1

Chain of BRD2 (His-Brd2(60-472)) (P25440 60-472): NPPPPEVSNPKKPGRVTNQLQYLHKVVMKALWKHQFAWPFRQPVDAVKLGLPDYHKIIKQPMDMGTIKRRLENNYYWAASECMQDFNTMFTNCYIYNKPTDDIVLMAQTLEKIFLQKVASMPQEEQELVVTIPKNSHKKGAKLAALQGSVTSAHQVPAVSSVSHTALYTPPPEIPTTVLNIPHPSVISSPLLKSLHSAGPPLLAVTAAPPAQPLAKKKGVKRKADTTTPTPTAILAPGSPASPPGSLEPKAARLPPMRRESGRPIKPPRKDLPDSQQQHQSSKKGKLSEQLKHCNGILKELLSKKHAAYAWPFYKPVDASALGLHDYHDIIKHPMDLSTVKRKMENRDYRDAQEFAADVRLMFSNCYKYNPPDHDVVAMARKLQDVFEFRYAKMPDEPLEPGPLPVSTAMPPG

Cc1cc(N2C(=O)c3c(C4CC4)nn(C)c3[C@H]2c2ccc(Cl)cc2)cn2c(C)nnc12 [Example 2, (R)-6-(4-chlorophenyl)-3-cyclopropyl-5-(3,8-dimethyl-[1,2,4]triazolo[4,3-a]pyridin-6-yl)-1-methyl-5,6-dihydropyrrolo[3,4-c]pyrazol-4(1H)-one]
IC50 (BRD2 (His-Brd2(60-472))): 11 nM
GI50 (MV-4-11 cells): 4.31 nM
MV-4-11 TGI (MV-4-11 cells): 11.21 nM
GI50 (K-562 cells): 29.2 nM
K-562 TGI (K-562 cells): >10000 nM
GI50 (THP-1 cells): 6.37 nM
THP-1 TGI (THP-1 cells): 14.95 nM

Cc1cc(N2C(=O)c3c(C4CC4)nn(C)c3[C@H]2c2ccc(Cl)cc2)cn2c(C(F)F)nnc12 [Example 7, (R)-6-(4-chlorophenyl)-3-cyclopropyl-5-(3-(difluoromethyl)-8-methyl-[1,2,4]triazolo-[4,3-a]pyridin-6-yl)-1-methyl-5,6-dihydropyrrolo[3,4-c]pyrazol-4(1H)-one]
IC50 (BRD2 (His-Brd2(60-472))): 13 nM
GI50 (MV-4-11 cells): 2.45 nM
MV-4-11 TGI (MV-4-11 cells): 6.275 nM
GI50 (K-562 cells): 46.3 nM
K-562 TGI (K-562 cells): >10000 nM
GI50 (THP-1 cells): 5.65 nM
THP-1 TGI (THP-1 cells): 14.8 nM

COc1cc(N2C(=O)c3c(C4CC4)nn(C)c3C2c2ccc(Cl)cc2)cn2c(C)nnc12 (racemic) [Example 5, 6-(4-chlorophenyl)-3-cyclopropyl-5-(8-methoxy-3-methyl-[1,2,4]triazolo[4,3-a]pyridin-6-yl)-1-methyl-5,6-dihydropyrrolo[3,4-c]pyrazol-4(1H)-one]
IC50 (BRD2 (His-Brd2(60-472))): 54 nM
GI50 (MV-4-11 cells): 64.9 nM
MV-4-11 TGI (MV-4-11 cells): 104 nM
GI50 (K-562 cells): 373 nM
K-562 TGI (K-562 cells): >10000 nM
GI50 (THP-1 cells): 81.4 nM
THP-1 TGI (THP-1 cells): 147.5 nM

Cc1cc(N2C(=O)c3c(C4CC4)nn(C)c3C2c2ccc(Cl)cc2)cn2c(CF)nnc12 (racemic) [Example 16, 6-(4-chlorophenyl)-3-cyclopropyl-5-(3-(fluoromethyl)-8-methyl-[1,2,4]triazolo[4,3-a]-pyridin-6-yl)-1-methyl-5,6-dihydropyrrolo[3,4-c]pyrazol-4(1H)-one]
IC50 (BRD2 (His-Brd2(60-472))): 16 nM
GI50 (MV-4-11 cells): 6.07 nM
MV-4-11 TGI (MV-4-11 cells): 11.3 nM
GI50 (K-562 cells): 122 nM
K-562 TGI (K-562 cells): >10000 nM
GI50 (THP-1 cells): 18.7 nM
THP-1 TGI (THP-1 cells): 51.6 nM

COc1cc(N2C(=O)c3c(C4CC4)nn(C)c3C2c2ccc(Cl)cc2)cc2c1nnn2C (centres unmarked) [Example 6]
IC50 (BRD2 (His-Brd2(60-472))): 38 nM
GI50 (MV-4-11 cells): 44.5 nM
MV-4-11 TGI (MV-4-11 cells): 90.25 nM
GI50 (K-562 cells): 204 nM
K-562 TGI (K-562 cells): >10000 nM
GI50 (THP-1 cells): 63 nM
THP-1 TGI (THP-1 cells): 118.1 nM

Cc1cc(N2C(=O)c3c(C4CC4)nn(C)c3C2c2ccc(Cl)cc2)cn2c(C)nnc12 (centres unmarked) [Example 1, 6-(4-chlorophenyl)-3-cyclopropyl-5-(3,8-dimethyl-[1,2,4]triazolo[4,3-a]pyridin-6-yl)-1-methyl-5,6-dihydropyrrolo[3,4-c]pyrazol-4(1H)-one]
IC50 (BRD2 (His-Brd2(60-472))): 29 nM
GI50 (MV-4-11 cells): 5.42 nM
MV-4-11 TGI (MV-4-11 cells): 10.7 nM
GI50 (K-562 cells): 51.9 nM
K-562 TGI (K-562 cells): >10000 nM
GI50 (THP-1 cells): 9.6 nM
THP-1 TGI (THP-1 cells): 20.4 nM

Cc1cc(N2C(=O)c3c(C4CC4)nn(C)c3C2c2ccc(Cl)cc2)cn2c(C(F)F)nnc12 (racemic) [Example 3, 6-(4-chlorophenyl)-3-cyclopropyl-5-(3-(difluoromethyl)-8-methyl-[1,2,4]triazolo[4,3-a]pyridin-6-yl)-1-methyl-5,6-dihydropyrrolo[3,4-c]pyrazol-4(1H)-one]
IC50 (BRD2 (His-Brd2(60-472))): 13 nM
GI50 (MV-4-11 cells): 9.49 nM
MV-4-11 TGI (MV-4-11 cells): 23.45 nM
GI50 (K-562 cells): 73.5 nM
K-562 TGI (K-562 cells): >10000 nM
GI50 (THP-1 cells): 12.4 nM
THP-1 TGI (THP-1 cells): 29.45 nM

COCCn1nc(C2CC2)c2c1C(c1ccc(Cl)cc1)N(c1cc(C)c3nnc(CF)n3c1)C2=O (centres unmarked) [Example 18, 6-(4-chlorophenyl)-3-cyclopropyl-5-(3-(fluoromethyl)-8-methyl-[1,2,4]triazolo[4,3-a]-pyridin-6-yl)-1-(2-methoxyethyl)-5,6-dihydropyrrolo[3,4-c]pyrazol-4(1H)-one]
IC50 (BRD2 (His-Brd2(60-472))): 33 nM
GI50 (MV-4-11 cells): 6.73 nM
MV-4-11 TGI (MV-4-11 cells): 13.25 nM
GI50 (K-562 cells): 139 nM
K-562 TGI (K-562 cells): >10000 nM
GI50 (THP-1 cells): 19.2 nM
THP-1 TGI (THP-1 cells): 46.45 nM

COCCn1nc(C2CC2)c2c1C(c1ccc(Cl)cc1)N(c1cc(C)c3nnc(C)n3c1)C2=O (racemic) [Example 4, 6-(4-chlorophenyl)-3-cyclopropyl-5-(3,8-dimethyl-[1,2,4]triazolo[4,3-a]pyridin-6-yl)-1-(2-methoxyethyl)-5,6-dihydropyrrolo[3,4-c]pyrazol-4(1H)-one]
IC50 (BRD2 (His-Brd2(60-472))): 17 nM
GI50 (MV-4-11 cells): 9.36 nM
MV-4-11 TGI (MV-4-11 cells): 20.8 nM
GI50 (K-562 cells): 56.8 nM
K-562 TGI (K-562 cells): >10000 nM
GI50 (THP-1 cells): 11.9 nM
THP-1 TGI (THP-1 cells): 27.95 nM

Cc1nnc2c(NC(=O)OC(C)(C)C)cc(N3C(=O)c4c(C5CC5)nn(C)c4C3c3ccc(Cl)cc3)cn12 (centres unmarked) [Example 27, tert-butyl (6-(6-(4-chlorophenyl)-3-cyclopropyl-1-methyl-4-oxopyrrolo[3,4-c]pyrazol-5(1H,4H,6H)-yl)-3-methyl-[1,2,4]triazolo[4,3-a]pyridin-8-yl)carbamate]
IC50 (BRD2 (His-Brd2(60-472))): 47 nM
GI50 (MV-4-11 cells): 11.1 nM
MV-4-11 TGI (MV-4-11 cells): 22.6 nM
GI50 (K-562 cells): 164 nM
K-562 TGI (K-562 cells): >10000 nM
GI50 (THP-1 cells): 22.8 nM
THP-1 TGI (THP-1 cells): 44.65 nM

CCOC(=O)Nc1cc(N2C(=O)c3c(C4CC4)nn(C)c3C2c2ccc(Cl)cc2)cn2c(C)nnc12 (centres unmarked) [Example 29, ethyl (6-(6-(4-chlorophenyl)-3-cyclopropyl-1-methyl-4-oxopyrrolo[3,4-c]pyrazol-5-(1H,4H,6H)-yl)-3-methyl-[1,2,4]triazolo[4,3-a]pyridin-8-yl)carbamate]
IC50 (BRD2 (His-Brd2(60-472))): 23 nM
GI50 (MV-4-11 cells): 1.13 nM
MV-4-11 TGI (MV-4-11 cells): 1.97 nM
GI50 (K-562 cells): 23.6 nM
K-562 TGI (K-562 cells): >10000 nM
GI50 (THP-1 cells): 2.59 nM
THP-1 TGI (THP-1 cells): 7.62 nM
